Patent publication US7183320B2, “Benzoylsulfonamides and sulfonylbenzamidines for use as antitumour agents” (Eli Lilly and Company, priority 2002, dated 2007)

Tested on: bFGF-induced neoangiogenesis
Experiment: Rat corneal micropocket assay, bFGF disks
Assay type: in vivo
Conditions: 160 mg/kg orally by gavage once per day, days 1 through 10; Fisher 344 female rats
Method: Rat Corneal Micropocket Assay
Fisher 344 female rats (145–155 grams; Taconic, Inc., Germantown, N.Y.) were anesthesized with acepromazine (2.5 mg/kg, ip) 20 minutes prior to initiation of 2–3% isoflurane/oxygen inhalation. The body temperature was maintained with a circulating hot water pad. The surgery was performed using an ophthalmic operating microscope (OMS.75 Operating Microscope, TopCon Corporation, Japan). A scalpel blade (#15) was used to make a vertical half-thickness linear corneal incision just lateral to the center of the eye. […] A pocket was formed in the cornea using blunt dissection with corneal scissors (Roboz, Rockville, Md.). Nitrocellulose filters ([…], Millipore, Bedford, Mass.) were cut into small disks using a 20 gauge needle punch. The disks were soaked in 2 μl of human VEGF solution ([…]; R&D Systems) or human basic fibroblast growth factor (0.20 μg/μl; R&D Systems) for 10 minutes on ice. Using forceps, the disks impregnated with the angiogenic factor (VEGF or bFGF) were inserted into the corneal pocket so that the disk is firmly covered with corneal epithelium. […] The images were analyzed by converting the area of interest to high contrast black and white reversed image and counting the bright pixels as a determination of the vascular area. […]

O=C(NS(=O)(=O)c1ccccc1)c1ccc(Cl)cc1Cl [Example 110, N-[2,4-dichlorobenzoyl]phenylsulfonamide]
inhibition of bFGF-induced neoangiogenesis: not an effective inhibitor
